These results are taken from patent US20260234140A1, “PYRIDOPYRIMIDINE DERIVATIVE AND USE THEREOF” (SUNSHINE LAKE PHARMA CO., LTD., priority 2023, published 2026).

Data set [1] can be described thus: Pharmacokinetics experiment in SD rats. The class given is in vivo. As to conditions: male SD rats; for AUC(0-t) / Cmax / half-life / clearance / Vd: rat, plasma; for Vd: read-out: Vss. How it is done: Experiment 2: Pharmacokinetics Experiment
1) Preparation of the compound solutions of Example 1 and Example 17: The test compound was prepared into a solution using 10% dimethyl sulfoxide, 10% Kolliphor HS15 and 80% physiological saline; Preparation of the compound solution of Example 11: The compound to be tested is prepared into a solution with 5% dimethyl sulfoxide, 5% Kolliphor HS15 and 90% saline for oral administration or intravenous injection.
2) Male SD rats weighing 250-345 g were randomly divided into two groups. One group was intravenously injected with the test compound at a dose of 1.0 mg/kg, and the other group was orally administered with the test compound at a dose of 5.0 mg/kg. Blood was collected at 0.083, 0.25, 0.5, 1, 2, 5, 7 and 24 hours after administration.
3) A standard curve of an appropriate range was established according to the sample concentration, and the concentration of the test compound in the plasma sample was determined in the MRM mode using an AB SCIEX Q TRAP 4000 LC-MS/MS. The pharmacokinetic parameters were calculated using the non-compartmental model method using WinNonLin 6.3 software.

Another data set concerns PD1/PD-L1 pathway. In words: PD1/PD-L1 Blockade Bioassay, inhibition of the PD1/PD-L1 pathway at the cellular level (luciferase reporter, PD-1 Jukat T cells co-cultured with PD-L1 aAPC/CHO-K1 cells). The note with it: T-cell; for EC50: PD-1 Jukat T cells + PD-L1 aAPC/CHO-K1 cells, 6 h co-culture, ONE-Glo luciferase readout; for Emax: maximum % Activity relative to atezolizumab (set to 100%). The class given is cell-based. The procedure:
Experiment 1: Detecting the Inhibitory Activity of Compounds on the PD1/PD-L1 Pathway at the Cellular Level Using the PD1/PD-L1 Blockade Bioassay Method
PD-1 Jukat T cells were revived and cultured with 1640 medium containing 100 μg/mL Hygromycin B, […] Puromycin, 10% FBS and 1% dual antibody; PD-L1 aAPC/CHO-K1 cells were revived and cultured with F12K medium containing 100 μg/mL Hygromycin B, 200 μg/mL G418, 10% FBS and 1% dual antibody.
The revived cells need to be passaged 2-3 times. When the cells enter the exponential growth phase with good growth status, the PD-L1 aAPC/CHO-K1 was digested with trypsin, and the cells were resuspended in F12K containing 5% FBS and adjusted to a density of 5×10^5 cells/mL. 20 μl/well were plated in a 384-well plate (10,000 cells/well) and incubated in an incubator overnight for 16-20 h.
a Preparation of compound stock solution: Dissolve the compound to be tested in DMSO to prepare a 20 mM stock solution.
b Compound gradient dilution: dilute the compound in 1640 medium containing 5% FBS without antibiotics or phenol red, and make 3-fold gradient dilutions to prepare 10 concentration gradients (2×).
c Adding drugs: Take out the cell culture plate, discard the supernatant, add 20 μl/well of the prepared compound, and incubate in the incubator for 1.5 h.
PD-1 Jukat T cells were collected, washed once with PBS, and resuspended in 1640 medium containing 5% FBS without antibiotics or phenol red. The density was adjusted to 1×10^6 cells/mL. 20 μl PD-1 Jukat T cells (20,000 cells/well) were added to each well and incubated in the incubator for 6 h.
ONE-Glo™ Luciferase Assay reagent was thawed to room temperature in advance and then added to a 384-well plate at 40 µl/well. Incubate in the dark for 15 minutes and read the […] signal on a plate reader.
[formula] • Among them, % Activity: % Activity • RLU: Resulting Luminescence unit • RLUvehicle: Average RLU value of negative control wells on each plate • RLUpositive: Average RLU value of positive control wells on each plate • Vehicle control: DMSO (0.1%) corresponding to the test value was used as negative control (its % Activity was 0%); • Positive control: The highest detection value at the atezolizumab administration concentration was used as the positive control (its % Activity was 100%). • (2) EC50 value calculation method: The EC50 value was obtained by the nonlinear fitting formula of Graph Pad Prism 8.0 software. The calculation formula is as follows:
Y=Bottom+(Top−Bottom)/(1+10^((Log EC50−X)×HillSlope)) • X: log of activator concentration (logarithm of compound concentration); Y: % Activity • (3) Emax definition: The maximum % Activity value corresponding to the maximum activation value of the compound relative to atezolizumab (the activation value is set to 100%).

By AUC(0-t) is commonly meant the area under the concentration-time curve up to a stated or last time point. High values mean high exposure, low ones low exposure. For orientation: Cmax means the highest concentration seen after dosing. As usually defined, the half-life is how long it takes for the measured level to halve. As a reminder, the clearance is a measure of how efficiently the substance is removed, as volume per time. High values mean efficient removal, low ones inefficient removal. As usually defined, the EC50 is the concentration that produces a half-maximal response. Broadly, the Emax is the size of the effect at its maximum, as opposed to the concentration needed. For `COc1nc(-c2cccc(-c3cccc(Nc4nc(C(F)F)nc5cc(CN6CC[C@@H](O)C6)cnc45)c3C)c2Cl)ccc1CN1CCC(C(=O)O)CC1` [Example 40, (R)-1-((6-(2-chloro-3′-((2-(difluoromethyl)-7-((3-hydroxypyrrolidin-1-yl)methyl)pyrido[3,2-d]pyrimidin-4-yl)amino)-2′-methyl-[1,1′-biphenyl]-3-yl)-2-methoxypyridin-3-yl)methyl)piperidine-4-carboxylic acid], in data set [1] (ig (oral), 5 mg/kg), the F is 23%, the AUC(0-t) came out at 15100 ng·h/mL, the peak concentration (Cmax) is 1260 ng/mL and the half-life is 246 min. In data set [1] (iv, 1 mg/kg), this molecule showed an AUC(0-t) of 12900 ng·h/mL, a Cmax of 1870 ng/mL, a clearance of 1.3 mL/min/kg and a half-life of 270 min. In addition, the Vd in data set [1] (iv, 1 mg/kg) turned out to be 0.43 L/kg. For the same molecule, in the data set on PD1/PD-L1 pathway, the EC50 amounted to 57.7 nM and the Emax amounted to 121%.

In data set [1] (ig (oral), 5 mg/kg), `[2H]C([2H])([2H])N(Cc1ncc(-c2cccc(-c3cccc(Nc4nc(C(F)F)nc5cc(CN6CC[C@@H](O)C6)cnc45)c3C)c2Cl)cc1OC)C[C@H]1CC[C@H](C(=O)O)CC1` [Example 38, (1r,4r)-4-((((5-(2-chloro-3′-((2-(difluoromethyl)-7-(((R)-3-hydroxypyrrolidin-1-yl)methyl)pyrido[3,2-d]pyrimidin-4-yl)amino)-2′-methyl-[1,1′-biphenyl]-3-yl)-3-methoxypyridin-2-yl)methyl)(methyl-d3)amino)methyl)cyclohexane-1-carboxylic acid] had an F of 57.8%, an AUC(0-t) of 25900 ng·h/mL, a Cmax of 1850 ng/mL and a half-life of 366 min. In data set [1] (iv, 1 mg/kg), this molecule had an exposure AUC(0-t) of 8890 ng·h/mL, a Cmax of 621 ng/mL, a clearance of 1.7 mL/min/kg and a half-life of 396 min. In data set [1] (iv, 1 mg/kg), the Vd is 0.91 L/kg.

In data set [1] (ig (oral), 5 mg/kg), `COc1nc(-c2cccc(-c3cccc(Nc4nc(C(F)F)nc5cc(CN6CC[C@@H](O)C6)cnc45)c3C)c2Cl)ccc1CN(C)C[C@H]1CC[C@H](C(=O)O)CC1` [Example 17, (1r,4r)-4-((((6-(2-chloro-3′-((2-(difluoromethyl)-7-(((R)-3-hydroxypyrrolidin-1-yl)methyl)pyrido[3,2-d]pyrimidin-4-yl)amino)-2′-methyl-[1,1′-biphenyl]-3-yl)-2-methoxypyridin-3-yl)methyl)(methyl)amino)methyl)cyclohexane-1-carboxylic acid] came in with an F of 55%, an AUC(0-t) of 27000 ng·h/mL and a Cmax of 1980 ng/mL. In data set [1] (iv, 1 mg/kg), the AUC(0-t) turned out to be 9760 ng·h/mL, the highest concentration (Cmax) came to 675 ng/mL, the clearance came to 1.6 mL/min/kg and the half-life is 450 min. The Vd in data set [1] (iv, 1 mg/kg) was determined as 0.95 L/kg. Besides, in the data set with PD1/PD-L1 pathway, the EC50 turned out to be 109 nM and the maximal effect (Emax) was found to be 94.1%.

In data set [1] (ig (oral), 5 mg/kg), `COc1nc(-c2cccc(-c3cccc(Nc4nc(C(F)F)nc5cc(CN6CC[C@@H](O)C6)cnc45)c3C)c2Cl)cnc1CN(C)[C@H]1CC[C@H](C(=O)O)CC1` [Example 11, (1r,4r)-4-(((5-(2-chloro-3′-((2-(difluoromethyl)-7-(((R)-3-hydroxypyrrolidin-1-yl)methyl)pyrido[3,2-d]pyrimidin-4-yl)amino)-2′-methyl-[1,1′-biphenyl]-3-yl)-3-methoxypyrazin-2-yl)methyl)(methyl)amino)cyclohexane-1-carboxylic acid] had an F of 52.9%, an exposure AUC(0-t) of 16700 ng·h/mL, a Cmax of 1630 ng/mL and a half-life of 258 min. In data set [1] (iv, 1 mg/kg), this molecule had an AUC(0-t) of 6370 ng·h/mL, a Cmax of 1100 ng/mL, a clearance of 2.6 mL/min/kg and a half-life of 234 min. For the same molecule, the Vd in data set [1] (iv, 1 mg/kg) came to 0.75 L/kg. Besides, in the data set with PD1/PD-L1 pathway, the EC50 came out at 20.4 nM and the Emax turned out to be 98.5%.

In data set [1] (ig (oral), 5 mg/kg), `COc1nc(-c2cccc(-c3cccc(Nc4nc(C(F)F)nc5cc(CN6CC[C@@H](O)C6)cnc45)c3C)c2Cl)ccc1CN(C)[C@H]1CC[C@H](C(=O)O)CC1` [Example 1, (1r,4r)-4-(((6-(2-chloro-3′-((2-(difluoromethyl)-7-(((R)-3-hydroxypyrrolidin-1-yl)methyl)pyrido[3,2-d]pyrimidin-4-yl)amino)-2′-methyl-[1,1′-biphenyl]-3-yl)-2-methoxypyridin-3-yl)methyl)(methyl)amino)cyclohexane-1-carboxylic acid] had an F of 32%, an AUC(0-t) of 12300 ng·h/mL, a Cmax of 935 ng/mL and a half-life of 294 min. In data set [1] (iv, 1 mg/kg), the AUC(0-t) was 7710 ng·h/mL, the Cmax is 877 ng/mL, the clearance worked out at 2.1 mL/min/kg and the half-life is 324 min. The Vd in data set [1] (iv, 1 mg/kg) came to 0.82 L/kg. In addition, in the data set with PD1/PD-L1 pathway, the EC50 was 44 nM and the maximal effect (Emax) is 98.2%.

On to `[2H]C([2H])([2H])N(Cc1ncc(-c2cccc(-c3cccc(Nc4nc(C(F)F)nc5cc(CN6CC[C@@H](O)C6)cnc45)c3C)c2Cl)nc1OC)[C@H]1CC[C@H](C(=O)O)CC1` [Example 32, (1r,4r)-4-(((5-(2-chloro-3′-((2-(difluoromethyl)-7-(((R)-3-hydroxypyrrolidin-1-yl)methyl)pyrido[3,2-d]pyrimidin-4-yl)amino)-2′-methyl-[1,1′-biphenyl]-3-yl)-3-methoxypyrazin-2-yl)methyl)(methyl-d3)amino)cyclohexane-1-carboxylic acid], for which, in the data set with PD1/PD-L1 pathway, the EC50 worked out at 76.3 nM and the maximum response (Emax) stood at 84.1%.
